In patent US12109292B2, “Bioflavonoid compositions and their use” (Oraldent Limited, priority 2018, dated 2024):

Key:
[1] = system: S. mutans; test: Short exposure assay (bactericidal effect), colony count; type: cell-based, Streptococcus mutans; settings: 0.05%; 10 minutes; 5000 CFU inoculum
Procedure: The short-term antibacterial activity of Citrox was semi-quantitatively assessed in a short exposure assay. A S. mutans culture, diluted in order to contain 5000 Colony Forming Units, was incubated for 10 minutes in presence of the antibacterial substance and extemporarily plated onto a BHI agar plate. Plates were incubated at 37° C. under anaerobe conditions and colony counted. […] Citrox 0.5% reduced the count of CFU to the half (<3000 CFU).

[2] = system: Streptococcus mutans; test: Inhibition zone assay on agar plate; type: cell-based; settings: 48 h at 37° C. anaerobe
Procedure: The antibacterial activity of ε-polylysine was semi-quantitatively assessed in a inhibition zone assay. 0.1 mL of a confluent Streptococcus mutans culture was spread over a Brain Heart Infusion (BHI) agar plate. Filter platelets (5 mm diameter) soaked with 0.01 mL substance were applied on plate. Plates were incubated 48 h at 37° C. under anaerobe conditions. The diameter of outer limit of the inhibition zones were measured, the diameter of the platelet deduced and the half result considered the radius of inhibition rings. Concentrations were tested in triplicate and their results averaged.

[3] = system: Escherichia coli; test: Direct exposure of Escherichia coli mini cultures, minimal inhibitory concentration by turbidity; type: cell-based; settings: E. coli, 5 hours at 37° C., extrapolated from FIG. 2
Procedure: Growth inhibition was monitored by measuring turbidity of mini cultures after 5 hours of aerobe incubation at 37° C. under agitation. Solutions were diluted to the half in cascade.

[4] = system: Escherichia coli; test: Pre-treatment of high binding plates with Citrox/ε-polylysine, then Escherichia coli growth inhibition (turbidity); type: cell-based
Procedure: High Binding plates were pre-treated with 0.1 mL of pure Citrox/ε-Polylysine solutions incubated 60′ at room temperature. The concentrations of Citrox range from 0.06% to 4%. The ε-Polylysine concentrations range from 30 mg/L to 120 mg/L. The wells have been emptied and rinsed with 0.2 mL bi-distilled water. 0.2 mL of a diluted Escherichia coli culture (turbidity: 5 m OD at 600 nm) were given to the pre-treated wells and incubated for 3 hours at 37° C. Turbidity were measured at 600 nm and percentage of growth inhibition in comparison to untreated well calculated (FIG. 1).

Compound	colony formation after short exposure [1]	Radius of inhibition rings ([2]; 0.1%)	Radius of inhibition rings ([2]; 1%)	Minimal inhibitory concentration (MIC) [3]	Radius of inhibition rings ([2]; 10 mg/L)	Radius of inhibition rings ([2]; 100 mg/L)	Radius of inhibition rings ([2]; 1000 mg/L)	highest ε-polylysine concentration that does not affect significantly the antibacterial effect of Citrox pretreatment [4]	effect of plate-absorbed substance on growth of bacteria in suspension ([4]; high binding plate, substance absorbed onto solid surface)
OO [Water peroxide, reference compound]	complete absence of colony formation	1.5 mm	5 mm	–	–	–	–	–	–
ε-Polylysine	–	–	–	4 µg/mL	0.5 mm	2.5 mm	6.5 mm	30 mg/L	does not affect the growth of bacteria in suspension
